# Test results: patent publication US10660874B2, “Ecteinamycin, compositions and uses thereof” (Wisconsin Alumni Research Foundation, priority 2014, dated 2020)
# Experiments:
# [1] = tested on: P. aeruginosa (ATCC #27853); assay: MIC, dilution antimicrobial susceptibility test; assay type: cell-based; settings: Pseudomonas aeruginosa, ATCC27853, 33° C., 18 h
# Method: (§1) Ecteinamycin was tested for antibacterial activity against C. difficile (ATCC BAA-1870), MRSA (ATCC #33591), MSSA (ATCC #29213), E. coli (ATCC #25922), P. aeruginosa (ATCC #27853), and VRE (ATCC), and MICs were determined using a dilution antimicrobial susceptibility test for aerobic (MRSA, MSSA, E. coli, P. aeruginosa, and VRE) and anaerobic (C. difficile) bacteria. Ecteinamycin was dissolved in DMSO, serially diluted to 10 concentrations (0.0313-32 μg/mL), and tested in a 96-well plate. […] Ecteinamycin and vancomycin were tested in triplicate. Six untreated media controls were included on each plate. For MRSA, MSSA, E. coli, and P. aeruginosa, the plates were incubated at 33° C. for 18 h. For C. difficile, the plate was incubated at 36° C. for 48 h anaerobically and then read visually using a mirror apparatus. All manipulations to the plate were done inside the anaerobe chamber. The MIC was determined as the lowest concentration that inhibited visible growth.
# E. coli (ATCC #25922) = assay: MIC, dilution antimicrobial susceptibility test; assay type: cell-based; settings: Escherichia coli, ATCC25922, 33° C., 18 h
# Method: as §1
# [2] = tested on: S. cerevisiae deletion mutants; assay: Chemical genomic analysis in yeast deletion mutants; assay type: cell-based, Saccharomyces cerevisiae; settings: 250 μg/mL; for Fold Change in abundance relative to solvent control: 48 h
# Method: A chemical genomic analysis of ecteinamycin was performed as described previously (Fling, S.-Y.; Sofiyev, V.; Schneiderman, J.; Hirschfeld, A. F.; Victor, R. E.; Woods, K.; Piotrowski, J. S.; Deshpande, R.; Li, S. C.; de Voogd, N. J.; Myers, C. L.; Boone, C.; Andersen, R. J.; Turvey, S. E. ACS Chem. Biol. 2014, 9, 247-257.). The optimal inhibitory concentration of ecteinamycin for chemical genomic profiling (70-80% growth versus solvent control in YP-Glucose media after 24 h of growth) was determined. A concentration of 250 μg/mL inhibited growth within this range. Two hundred μL cultures of a pooled, genome wide collection of S. cerevisiae deletion mutants with 250 μg/mL ecteinamycin or a DMSO control were grown in triplicate for 48 h at 30° C. The genomic DNA was extracted using the Epicentre MasterPure™ Yeast DNA purification kit. Mutant-specific molecular barcodes were amplified with specially designed multiplex primers containing adapters for Illumina sequencing. The barcodes were sequenced using an Illumina HiSeq2500 Rapid Run platform. Three replicates of each condition (ecteinamycin vs. DMSO) were sequenced. The barcode counts for each yeast deletion mutant in the presence of ecteinamycin were normalized against the DMSO control conditions to generate a Z-score to define sensitivity or resistance of individual strains (the chemical genomic profile). In addition, differential abundance analysis was calculated for each mutant's response to the ecteinamycin versus DMSO using edgeR. The mutants with very low counts (<5) were filtered out before using the edgeR package (version 3.4.2) to calculate an adjusted P-value and log fold change for each mutant. A Bonferroni corrected hypergeometric distribution test was used to search for significant enrichment of GO terms among the top sensitive and resistant deletion mutants with a P-value less than 0.0001.^42 The chemical genomic profile of ecteinamycin was compared against existing chemical genomic datasets by Pearson correlation.
# In parallel, chemical genomic profiling with the yeast, Saccharomyces cerevisiae, was used to investigate the mechanism of action of ecteinamycin. This method has been used for determining the mechanism of action and molecular target for many bioactive compounds, including natural products. Ecteinamcyin was screened against over four thousand deletion mutant yeast strains, genomic DNA was extracted, and mutant-specific DNA barcodes were amplified and sequenced by Illumina sequencing. Ecteinamycin sensitive and resistant mutants were determined by quantification of DNA-barcodes, providing a chemical genomic profile, which was used to evaluate the mechanism of action.
# E. coli deletion mutants = assay: Chemical genomic profiling in E. coli deletion mutants; assay type: cell-based, Escherichia coli
# Method: Chemical genomic profiling was also performed in Escherichia coli to further investigate the mechanism of action of ecteinamycin. Similar to the chemical genomic profiling with yeast, ecteinamcyin was screened against over 6,000 deletion mutant E. coli strains, genomic DNA was extracted, and mutant-specific DNA barcodes were amplified and sequenced by Illumina sequencing. Ecteinamycin sensitive and resistant mutants were determined by quantification of DNA-barcodes in order to provide a chemical genomic profile to aid in evaluating the mechanism of action (Table 7).
smiles,measurement,setting,value
C=C1OC(=O)C(C(=O)CC2OC(C(C)C(O)C(CC)C(=O)C(C)(O)C3CCC(CC)(C4CCC(O)(C(C)OC)C(C)O4)O3)C(C)CC2C)=C1O (stereo not shown) [ecteinamycin],MIC,[1],8 µg/mL
same,MIC,E. coli (ATCC #25922),16 µg/mL
same,growth versus solvent control,"[2]; YP-Glucose media, 24 h",70-80%
same,Fold Change in abundance relative to solvent control,[2]; APL4 deletion mutant (sensitive),0.076
same,Fold Change in abundance relative to solvent control,[2]; APM2 deletion mutant (sensitive),0.037
same,Fold Change in abundance relative to solvent control,[2]; DRS2 deletion mutant (sensitive),0.040
same,Fold Change in abundance relative to solvent control,[2]; EGT2 deletion mutant (resistant),3.564
same,Fold Change in abundance relative to solvent control,[2]; HAL9 deletion mutant (resistant),3.379
same,Fold Change in abundance relative to solvent control,[2]; IRC25 deletion mutant (resistant),3.732
same,Fold Change in abundance relative to solvent control,[2]; MRH1 deletion mutant (resistant),4.129
same,Fold Change in abundance relative to solvent control,[2]; MSS11 deletion mutant (resistant),2.585
same,Fold Change in abundance relative to solvent control,[2]; PAR32 deletion mutant (sensitive),0.017
same,Fold Change in abundance relative to solvent control,[2]; PHO2 deletion mutant (resistant),5.974
same,Fold Change in abundance relative to solvent control,[2]; PHO84 deletion mutant (resistant),2.986
same,Fold Change in abundance relative to solvent control,[2]; PRE9 deletion mutant (resistant),5.995
same,Fold Change in abundance relative to solvent control,[2]; TRP4 deletion mutant (sensitive),0.136
same,Fold Change in abundance relative to solvent control,[2]; UME6 deletion mutant (resistant),10.979
same,Fold Change in abundance relative to solvent control,[2]; VPS38 deletion mutant (sensitive),0.087
same,Fold Change in abundance relative to solvent control,[2]; YMR010W deletion mutant (sensitive),0.122
same,Fold Change in abundance relative to solvent control,[2]; YOL162W deletion mutant (sensitive),0.145
same,Fold Change in abundance relative to solvent control,[2]; YPL205C deletion mutant (resistant),4.953
same,Fold Change in abundance relative to solvent control,[2]; YPR089W deletion mutant (sensitive),0.110
same,Fold Change in abundance relative to solvent control,[2]; YPT7 deletion mutant (sensitive),0.016
same,Fold Change in abundance relative to solvent control,E. coli deletion mutants; acrA deletion mutant,0.087
same,Fold Change in abundance relative to solvent control,E. coli deletion mutants; acrB deletion mutant,0.189
same,Fold Change in abundance relative to solvent control,E. coli deletion mutants; atpA deletion mutant,0.280
same,Fold Change in abundance relative to solvent control,E. coli deletion mutants; atpF deletion mutant,0.207
same,Fold Change in abundance relative to solvent control,E. coli deletion mutants; csgE deletion mutant,0.369
same,Fold Change in abundance relative to solvent control,E. coli deletion mutants; dksA deletion mutant,0.187
same,Fold Change in abundance relative to solvent control,E. coli deletion mutants; fis deletion mutant,0.416
same,Fold Change in abundance relative to solvent control,E. coli deletion mutants; hupA deletion mutant,0.518
same,Fold Change in abundance relative to solvent control,E. coli deletion mutants; kdpD deletion mutant,0.374
same,Fold Change in abundance relative to solvent control,E. coli deletion mutants; ldcA deletion mutant,0.341
same,Fold Change in abundance relative to solvent control,E. coli deletion mutants; rpoS deletion mutant,0.350
same,Fold Change in abundance relative to solvent control,E. coli deletion mutants; sapB deletion mutant,0.241
same,Fold Change in abundance relative to solvent control,E. coli deletion mutants; sapD deletion mutant,0.197
same,Fold Change in abundance relative to solvent control,E. coli deletion mutants; trkA deletion mutant,0.145
same,Fold Change in abundance relative to solvent control,E. coli deletion mutants; ycdR deletion mutant,0.287
same,Fold Change in abundance relative to solvent control,E. coli deletion mutants; yhjK deletion mutant,0.485
same,Fold Change in abundance relative to solvent control,E. coli deletion mutants; yraP deletion mutant,0.365
